Results as given in patent US9174968B2, “Pyrimidinone compounds for use in the treatment of diseases or conditions mediated by LP-PLA2” (GLAXO GROUP LIMITED, priority 2010, dated 2015).
Counter-ions that a name gives are not always drawn.

The molecules below were run against T1, Lp-PLA2 from plasma (pooled human plasma) (Homo sapiens, UniProt Q13093) (assay: Lp-PLA2 human plasma assay (Thio-PAF assay)). Details: read-out: pIC50 in the thio-PAF assay (converted).
T1 construct: from tissue; host or cells: pooled human plasma
T1 sequence (Q13093 22-441): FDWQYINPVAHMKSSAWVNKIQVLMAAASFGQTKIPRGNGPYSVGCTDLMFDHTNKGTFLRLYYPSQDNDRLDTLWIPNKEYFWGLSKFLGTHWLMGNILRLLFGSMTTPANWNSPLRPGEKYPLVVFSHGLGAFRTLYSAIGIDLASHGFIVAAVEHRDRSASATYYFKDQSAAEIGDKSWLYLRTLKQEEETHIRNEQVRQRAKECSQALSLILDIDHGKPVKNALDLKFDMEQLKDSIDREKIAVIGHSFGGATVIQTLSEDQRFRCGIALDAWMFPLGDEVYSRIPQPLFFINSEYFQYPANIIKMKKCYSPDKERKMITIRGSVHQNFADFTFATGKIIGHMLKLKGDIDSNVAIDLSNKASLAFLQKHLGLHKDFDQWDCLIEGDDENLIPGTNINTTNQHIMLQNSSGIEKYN
Format: biochemical
Text: (3) Lipoprotein-Associated Phospholipase A2 (Lp-PLA2) Human Plasma Assay (Also Referred to as “Thio-PAF Assay”)
The human plasma assay utilizes a thioester analog of PAF (phosphatidylcholine), where hydrolysis yields to the formation of a phospholipid containing a free thiol group. The amount of thiol is quantitated continuously by reacting with CPM (7-diethylamino-3-(4′-maleimidylphenyl)-4-methylcoumarin), a maleimide which increases in fluorescence after Michael addition of thiols. This assay may detect the activity of Lp-PLA2 from plasma, as determined by specific inhibition by Lp-PLA2 inhibitors.
The thio-PAF assay was run as a quenched 15 μL assay. Compounds source plate was prepared by making 1:3 (by volume) serial dilution of the compounds into pure DMSO on 384-well microplate. 0.01 μL of compounds on compound source plate were transferred to 384 well Greiner 784076 (black) low-volume plates by ECHO liquid dispenser. 8 μL pooled human plasma, which was previously aliquoted and frozen, was added. Plates were centrifuged for 10 sec at 500 rpm. After 30 minutes preincubation, 2 μL of substrate (2.5 mM thio-PAF, 3.2 mM NEM (N-ethylmaleimide) [made fresh daily in DMSO], and 32 μM CPM [from a DMSO stock] in assay buffer of 50 mM HEPES, pH7.4, 150 mM NaCl, 1 mM CHAPS was added to 384 well Greiner 784076 (black) low-volume plates by BRAVO liquid handling station. Plates were centrifuged for 10 sec at 500 rpm. Plate was covered to protect from light and incubated for 2 min at room temperature. Reaction was quenched with 5 μL of 5% aqueous trifluoroacetic acid (TFA). Plates were covered to protect from light and incubated for 40 min at room temperature. Plates were read at ex: 380/em: 485 using-Envision microplate reader. PIC50 data, curve and QC analysis was conducted by using XLFit module in Excel.
All exemplified compounds of the present invention were tested in thio-PAF assay or similar assay as described above.
For O=c1nc(OCCc2ccc(Oc3ccc(Cl)c(C(F)(F)F)c3)cc2)[nH]cc1Cc1c(O)cc(F)cc1F [E19, 2-{[2-(4-{[4-Chloro-3-(trifluoromethyl)phenyl]oxy}phenyl)ethyl]oxy}-5-[(2,4-difluoro-6-hydroxyphenyl)methyl]-4(1H)-pyrimidinone], the IC50 was > 10 µM. With CCc1c[nH]c(OCCc2ccc(Oc3ccc(Cl)c(C(F)(F)F)c3)cc2)nc1=O [E27, 2-{[2-(4-{[4-Chloro-3-(trifluoromethyl)phenyl]oxy}phenyl)ethyl]oxy}-5-ethyl-4(1H)-pyrimidinone] the IC50 was > 10 µM. In the case of O=c1nc(CCc2ccc(Oc3ccc(F)cc3)cc2)[nH]cc1Cc1cncnc1 [E39, 2-(4-(4-fluorophenoxy)phenethyl)-5-(pyrimidin-5-ylmethyl)pyrimidin-4(1H)-one], the IC50 is reported as > 10 µM. For Cn1cc(Cc2c[nH]c(CCc3ccc(Oc4cccc(C(F)(F)F)c4)cc3)nc2=O)cn1 [E50, 5-((1-methyl-1H-pyrazol-4-yl)methyl)-2-(4-(3-(trifluoromethyl)phenoxy)phenethyl)pyrimidin-4(1H)-one], the IC50 was > 10 µM. COc1ncc(Cc2c[nH]c(SCc3ccc(Oc4ccc(F)cc4)cc3)nc2=O)cn1 [E52, 2-((4-(4-fluorophenoxy)benzyl)thio)-5-((2-methoxypyrimidin-5-yl)methyl)pyrimidin-4(1H)-one] was tested, and the IC50 was > 10 µM. In the case of N#Cc1ccc(Cc2c[nH]c(SCc3ccc(Oc4ccc(Cl)c(C(F)(F)F)c4)cc3)nc2=O)cc1 [E62, 4-[(2-{[(4-{[4-chloro-3-(trifluoromethyl)phenyl]oxy}phenyl)methyl]thio}-4-oxo-1,4-dihydro-5-pyrimidinyl)methyl]benzonitrile], the IC50 is reported as > 10 µM. With CCc1c[nH]c(SCc2ccc(Oc3ccc(Cl)c(C(F)(F)F)c3)cc2)nc1=O [E63, 2-{[(4-{[4-chloro-3-(trifluoromethyl)phenyl]oxy}phenyl)methyl]thio}-5-ethyl-4(1H)-pyrimidinone] the IC50 was > 10 µM. For Cn1cc(Cc2c[nH]c(SCc3ccc(Oc4ccc(Cl)c(C(F)(F)F)c4)c(C#N)c3)nc2=O)c2ccccc21 [E81, 2-(4-chloro-3-(trifluoromethyl)phenoxy)-5-(((5-((1-methyl-1H-indol-3-yl)methyl)-4-oxo-1,4-dihydropyrimidin-2-yl)thio)methyl)benzonitrile], the IC50 was > 10 µM. CCc1c[nH]c(SCc2ccc(Oc3ccc(Cl)c(C(F)(F)F)c3)c(C#N)c2)nc1=O [E83, 2-{[4-chloro-3-(trifluoromethyl)phenyl]oxy}-5-{[(5-ethyl-4-oxo-1,4-dihydro-2-pyrimidinyl)thio]methyl}benzonitrile] was tested, and the IC50 was > 10 µM. For COc1ncc(Cc2c[nH]c(SCc3ccc(Oc4ccc(F)c(C(F)(F)F)c4)c(C#N)c3)nc2=O)cn1 [E89, 2-{[4-fluoro-3-(trifluoromethyl)phenyl]oxy}-5-{[(5-{[2-(methyloxy)-5-pyrimidinyl]methyl}-4-oxo-1,4-dihydro-2-pyrimidinyl)thio]methyl}benzonitrile], the IC50 was > 10 µM. CCc1c[nH]c(SCc2ccc(Oc3cccc(C(F)(F)F)c3)c(C#N)c2)nc1=O [E98, 5-{[(5-ethyl-4-oxo-1,4-dihydro-2-pyrimidinyl)thio]methyl}-2-{[3-(trifluoromethyl)phenyl]oxy}benzonitrile] was tested, and the IC50 was > 10 µM. With N#Cc1ccc(Cc2c[nH]c(SCCc3ccc(Oc4ccc(Cl)c(C(F)(F)F)c4)cc3)nc2=O)cc1 [E114, 4-[(2-{[2-(4-{[4-chloro-3-(trifluoromethyl)phenyl]oxy}phenyl)ethyl]thio}-4-oxo-1,4-dihydro-5-pyrimidinyl)methyl]benzonitrile] the IC50 was > 10 µM. In the case of CCc1c[nH]c(OCCc2cc(F)c(Oc3ccc(Cl)c(C(F)(F)F)c3)c(F)c2)nc1=O [E125, 2-{[2-(4-{[4-chloro-3-(trifluoromethyl)phenyl]oxy}-3,5-difluorophenyl)ethyl]oxy}-5-ethyl-4(1H)-pyrimidinone], the IC50 is reported as > 10 µM. For O=C(O)Cc1c[nH]c(OCCc2ccc(Oc3ccc(Cl)c(C(F)(F)F)c3)cc2)nc1=O [E131, (2-{[2-(4-{[4-chloro-3-(trifluoromethyl)phenyl]oxy}phenyl)ethyl]oxy}-4-oxo-1,4-dihydro-5-pyrimidinyl)acetic acid], the IC50 was > 10 µM. In the case of CCc1c[nH]c(OCCc2ccc(Oc3ccc(C(F)(F)F)nc3)cc2)nc1=O [E140, 5-ethyl-2-{[2-(4-{[6-(trifluoromethyl)-3-pyridinyl]oxy}phenyl)ethyl]oxy}-4(1H)-pyrimidinone], the IC50 is reported as > 10 µM. For CCc1cn(C)c(OCCc2ccc(Oc3ccc(C(F)(F)F)nc3)cc2)nc1=O [E142, 5-ethyl-1-methyl-2-{[2-(4-{[6-(trifluoromethyl)-3-pyridinyl]oxy}phenyl)ethyl]oxy}-4(1H)-pyrimidinone], the IC50 was > 10 µM. CCc1cn(C)c(OCCc2ccc(Oc3cnc(C(F)(F)F)nc3)cc2)nc1=O [E144, 5-ethyl-1-methyl-2-(4-((2-(trifluoromethyl)pyrimidin-5-yl)oxy)phenethoxy)pyrimidin-4(1H)-one, trifluoroacetic acid salt] was tested, and the IC50 was > 10 µM. With COc1ncc(Cc2c[nH]c(OCCc3ccc(Oc4ncc(Cl)cn4)cc3)nc2=O)cn1 [E145, 2-(4-((5-chloropyrimidin-2-yl)oxy)phenethoxy)-5-((2-methoxypyrimidin-5-yl)methyl)pyrimidin-4(1H)-one, Trifluoroacetic acid salt] the IC50 was > 10 µM. Cc1cccc(Oc2ccc(CCOc3nc(=O)c(Cc4cnn(C)c4)c[nH]3)cc2)n1 [E158, 5-[(1-methyl-1H-pyrazol-4-yl)methyl]-2-[(2-{4-[(6-methyl-2-pyridinyl)oxy]phenyl}ethyl)oxy]-4(1H)-pyrimidinone] was tested, and the IC50 was > 10 µM. In the case of CCc1c[nH]c(OCCc2ccc(Oc3cccc(C)n3)cc2)nc1=O [E160, 5-ethyl-2-[(2-{4-[(6-methyl-2-pyridinyl)oxy]phenyl}ethyl)oxy]-4(1H)-pyrimidinone], the IC50 is reported as > 10 µM. For CCc1c[nH]c(OCCc2ccc(Oc3cc(Cl)cc(C(F)(F)F)c3)cc2)nc1=O [E163, 2-{[2-(4-{[3-chloro-5-(trifluoromethyl)phenyl]oxy}phenyl)ethyl]oxy}-5-ethyl-4(1H)-pyrimidinone], the IC50 was > 10 µM. In the case of CCc1c[nH]c(OCCc2cc(F)c(Oc3cnc(C(F)(F)F)nc3)c(F)c2)nc1=O [E170, 2-(3,5-difluoro-4-((2-(trifluoromethyl)pyrimidin-5-yl)oxy)phenethoxy)-5-ethylpyrimidin-4(1H)-one], the IC50 is reported as > 10 µM. In the case of CCc1cn(C)c(OCCc2cc(F)c(Oc3cnc(C(F)(F)F)nc3)c(F)c2)nc1=O [E171, 2-(3,5-difluoro-4-((2-(trifluoromethyl)pyrimidin-5-yl)oxy)phenethoxy)-5-ethyl-1-methylpyrimidin-4(1H)-one], the IC50 is reported as > 10 µM. For CCc1c[nH]c(OCCc2ccc(Oc3ccc(Cl)c(C(F)(F)F)c3)c(F)c2)nc1=O [E173, 2-{[2-(4-{[4-chloro-3-(trifluoromethyl)phenyl]oxy}-3-fluorophenyl)ethyl]oxy}-5-ethyl-4(1H)-pyrimidinone], the IC50 was > 10 µM. With CCc1c[nH]c(OCCc2ccc(Oc3ccc(Cl)c(OC(F)(F)F)c3)cc2)nc1=O [E179] the IC50 was > 10 µM. With CCc1c[nH]c(OCCc2ccc(Oc3ccc(Cl)c(C)c3)cc2)nc1=O [E183, 2-[(2-{4-[(4-chloro-3-methylphenyl)oxy]phenyl}ethyl)oxy]-5-ethyl-4(1H)-pyrimidinone] the IC50 was > 10 µM. For CCc1cn(C)c(OCCc2ccc(Oc3ccc(Cl)c(C)c3)cc2)nc1=O [E184, 2-[(2-{4-[(4-chloro-3-methylphenyl)oxy]phenyl}ethyl)oxy]-5-ethyl-1-methyl-4(1H)-pyrimidinone], the IC50 was > 10 µM. For CN(CCc1ccc(Oc2ccc(F)cc2)cc1)c1nc(=O)c(Cc2cncnc2)c[nH]1 [E192, 2-{2-[4-(4-fluoro-phenoxy)phenyl]-ethyl-methyl-amino}-5-pyrimidin-5-ylmethyl-1H-pyrimidin-4-one], the IC50 was > 10 µM. For Cc1c[nH]c(NCCc2ccc(Oc3ccc(Cl)c(C(F)(F)F)c3)cc2)nc1=O [E198, 2-{2-[4-(4-Chloro-3-trifluoromethyl-phenoxy)-phenyl]-ethylamino}-5-methyl-1H-pyrimidin-4-one], the IC50 was > 10 µM. With O=c1nc(NCCc2ccc(Oc3ccc(Cl)c(C(F)(F)F)c3)cc2)[nH]cc1CN1CCCC1 [E215, 2-{2-[4-(4-chloro-3-trifluoromethyl-phenoxy)-phenyl]-ethylamino}-5-pyrrolidin-1-ylmethyl-1H-pyrimidin-4-one] the IC50 was > 10 µM.
